The source of these data is article PMC9089363, “Nonpolymeric Citramide-Based Kinetic Hydrate Inhibitors: Good Performance with Just Six Alkylamide Groups” (ACS Omega, 2022).

SMILES strings stand for the structures. Like-named read-outs stand apart in the source and are kept apart here.

Data set [1] in a line: Slow constant cooling (SCC) KHI performance test in high-pressure steel rocking cells. The note with it: SNG 76 bar. The method, then:
2.5 Kinetic Hydrate Inhibitor (KHI) Performance Tests in High-Pressure Rocking Cells
A rig with five high-pressure steel rocking cells was used for carrying out the KHI performance ranking of the new molecules. Each cell has a volume of 40 mL and a steel ball for agitation. The rig was supplied by PSL Systemtechnik GmbH, Germany, but the cells were constructed by Swafas, Norway (Figure 6). As in most of our KHI studies, we used a synthetic natural gas (SNG) mixture in order to compare results with a host of previous KHI studies. The SNG gives an sII hydrate as the thermodynamically stable phase (Table 1). Also, for comparative purposes we used our standard slow constant cooling (SCC) test method.[27] The pressure was approximately 76 bar at the start of each SCC experiment. At this pressure, an average equilibrium temperature (Teq) of 20.2 °C ± 0.05 °C was obtained from five repeat tests by laboratory slow dissociation experiments in the same rocking cells.[20] This agrees very well with a Teq value of 20.5 °C calculated using Calsep’s PVTSim software.
The SCC test procedure was carried out as follows: • 1. First, 20.0 mL of aqueous test solution was added to each steel cell, i.e., half the cell volume. • 2. Air was removed from the cells by alternate vacuum and filling with 1–5 bar SNG gas. • 3. The cells were filled with a 76 bar SNG mixture at room temperature, 20.5 °C. • 4. The cells were cooled from 20.5 to 2 °C at a rate of 1 °C/h while rocking. • 5. Temperature and pressure data for each cell were collected from the sensors and recorded throughout the whole cooling procedure.
Figure 8 illustrates how this is done for one cell. The small pressure drop at the very start of the graph is due to some SNG mixture dissolving in the aqueous phase. After this, the pressure drop is linear until hydrate formation is first detected at a To of 8.4 °C, where the pressure line deviates. Nucleation may have occurred somewhat earlier but is not detectable. Ta is the first temperature at which we observe the maximum rate of gas hydrate formation for the experiment.
At 8.1 °C (Ta), the first fastest pressure drop rate occurs. In this case, the rate of hydrate growth is fast shortly after To. […] The degrees of scattering in To values (≤20%) and Ta values (≤15%) are due to the stochastic nature of gas hydrate formation and are as expected from previous studies.[28] The scattering still allows for a rough ranking of the performance of the KHI samples as long as sufficient tests are carried out for a statistically significant difference using a t-test. Depending on the variation in average To between samples, 5–10 tests suffices in most cases to get a significant difference at the 95% confidence level (p < 0.05).[29]
At least 5 (and up to 10) standard constant cooling tests were employed to get each average To and average Ta value, where To denotes the temperature at which the first macroscopic detectable gas hydrate is formed and Ta denotes the rapid hydrate formation temperature in a solution. The KHI performance of each citramide derivative was compared mostly based on the To values as complete avoidance of gas hydrate formation is the preferred goal for field operations. Thus, a lower To value of a solution corresponds to a better KHI performance. […] However, caution in using this interpretation must be taken, since a low To value will mean a high driving force, which can cause more rapid macroscopic hydrate formation than a higher To value.

Data set [2] in a line: Cloud point (TCl) determination. Type of data set: physicochemical. The note with it: 2500 ppm aqueous solution, heated ca. 5 °C/min up to 95 °C. The method, then: A 2500 ppm aqueous solution of each citramide derivative was heated slowly (ca. 5 °C/min), and the first sign of clouding of the solution at a certain temperature was denoted as the cloud point. Any solution that was already opaque at room temperature was first kept in a cooling room at 0–5 °C overnight before heating. Each measurement was repeated at least three times to check the reproducibility of the cloud point.

Data set [3] is described as follows: Solubility in water (observation). Type of data set: physicochemical.
The mark [4] stands for this setting: 2500 ppm aqueous solution, cooling 20.5 to 2 °C at 1 °C/h, average of 5-10 tests.
[5] abbreviates: 2500 ppm aqueous solution, cooling 20.5 to 2 °C at 1 °C/h, average of 5-10 tests, lower = better KHI.
The mark [6] stands for this setting: 1000 ppm aqueous solution, SCC 1 °C/h.
Where [7] appears, read: 2500 ppm + 1 mL of n-decane each cell + 5000 ppm nBGE, SCC 1 °C/h.
The mark [8] stands for this setting: 2500 ppm + 1 mL of n-decane each cell, SCC 1 °C/h.
[9] abbreviates: 2500 ppm + 3 mL of n-decane each cell + 5000 ppm nBGE, SCC 1 °C/h.

For the molecule `CC(C)CNC(=O)CC(O)(CC(=O)NCC(C)C)C(=O)NCC(C)C` [TiBuCAm, 2-Hydroxy-N^1,N^2,N^3-triisobutylpropane-1,2,3-tricarboxamide], the “av. Ta (gas hydrate rapid formation temperature)” value (from here on “av. Ta”) in data set [1] (setting [4]) amounted to 13.5 °C. For the same molecule, the “cloud p.t Tcl” value in data set [2] was over 95 °C.

For `CCCCCNC(=O)CC(O)(CC(=O)NCCCCC)C(=O)NCCCCC` [TnPeCAm, 2-Hydroxy-N^1,N^2,N^3-tripentylpropane-1,2,3-tricarboxamide], the solubility in water entry in data set [3] is on record as “not soluble”; in data set [3] (listed as Tri-n-pentylcitramide), “negligible solubility in water”; in data set [3] (listed as tri-n-pentylcitramide), “not water soluble”.

With `CCCNC(=O)CC(O)(CC(=O)NCCC)C(=O)NCCC` [TnPrCAm, 2-Hydroxy-N^1,N^2,N^3-tripropylpropane-1,2,3-tricarboxamide], the “av. Ta” value in data set [1] (setting [4]) is 12.3 °C. In addition, in data set [1] (setting [5]), the “av. To (gas hydrate onset temperature)” value was determined as 16.3 °C. In data set [2], the “cloud p.t Tcl” value is over 95 °C.

For `CC(C)CNC(=O)CC(CC(=O)NCC(C)C)(OC(=O)CC(=O)OC(CC(=O)NCC(C)C)(CC(=O)NCC(C)C)C(=O)NCC(C)C)C(=O)NCC(C)C` [malonyl-TiBuCAm, 1,3-Malonic acid bis(triisobutylcitric acid) amide], the “av. Ta” value in data set [1] (setting [4]) stood at 12.7 °C. For the same molecule, in data set [2], the “cloud p.t Tcl” value was over 95 °C.

With `CCCNC(=O)CC(CC(=O)NCCC)(OC(=O)CC(=O)OC(CC(=O)NCCC)(CC(=O)NCCC)C(=O)NCCC)C(=O)NCCC` [malonyl-TnPrCAm, 1,3-Malonic acid bis(tripropylcitric acid) amide], the “av. Ta” value in data set [1] (setting [4]) amounted to 13.5 °C. For the same molecule, the “av. To (gas hydrate onset temperature)” value in data set [1] (setting [5]) amounted to 16.3 °C. In addition, the “cloud p.t Tcl” value in data set [2] was over 95 °C.

For the molecule `CC(C)CNC(=O)CC(CC(=O)NCC(C)C)(OC(=O)COCC(=O)OC(CC(=O)NCC(C)C)(CC(=O)NCC(C)C)C(=O)NCC(C)C)C(=O)NCC(C)C` [oxydiacetyl-TiBuCAm, 2,2′-oxydiacetic acid bis(triisobutylcitric acid) amide], the “av. Ta” value was 9.2 °C in data set [1] (setting [6]); 7.9 °C in data set [1] (setting [7]); 7.2 °C in data set [1] (setting [8]); 6.0 °C in data set [1] (setting [9]); 8.1 °C in data set [1] (setting [4]). Besides, the “av. To (gas hydrate onset temperature)” value in data set [1] (setting [6]) came out at 9.3 °C; in data set [1] (setting [7]), 8.1 °C; in data set [1] (setting [8]), 7.4 °C; in data set [1] (setting [9]), 6.2 °C; in data set [1] (setting [5]), 8.4 °C. Moreover, in data set [2], the “cloud p.t Tcl” value was determined as 35 °C.

Regarding `CCCNC(=O)CC(CC(=O)NCCC)(OC(=O)COCC(=O)OC(CC(=O)NCCC)(CC(=O)NCCC)C(=O)NCCC)C(=O)NCCC` [oxydiacetyl-TnPrCAm, 2,2′-Oxydiacetic acid bis(tripropylcitric acid) amide], in data set [1] (setting [4]), the “av. Ta” value turned out to be 12.3 °C. Besides, the “av. To (gas hydrate onset temperature)” value in data set [1] (setting [5]) is 12.8 °C. For the same molecule, the “cloud p.t Tcl” value in data set [2] is over 95 °C.
